Experimental data published in US20250339462A1, “CANCER TREATMENT USING ULTRA-HIGH CONCENTRATION GASEOUS NITRIC OXIDE AND A CHECKPOINT INHIBITOR” (Beyond Air, Inc., priority 2022, published 2025).
“Also recorded” adds a separate entry of the source.

Assays:
4T1 tumor-bearing mice = assay: 4T1 breast cancer model, UNO/Anti-CTLA-4 Repeated dose study; assay type: in vivo, mouse
Method: Preparation of 4T1 cells: Cancer cell suspension, in Hanks' Balanced Salt Solution (HBSS) (Biological Industries, Israel), at a concentration of 5.0×10^6 cells/ml was freshly prepared on the day of the cancer model induction. Cells were grown to a 70-80% confluency and harvested using trypsin. The cells were centrifuged at 1,200 revolutions per minute (rpm)—241 G for 8 minutes, then the pellet was re-suspended in 1 ml of HBSS. The cells were counted using an automated cell counter and a suspension with a concentration of 5.0×10^6 cells/ml was prepared. Cell viability must be above 90% before cell inoculation to the mice, otherwise new cells will need to be prepared. At the point of inoculation, cells will be at passage 8 at most. The cell suspension was then aspirated into a 1 ml syringe with a 27 G needle, for subcutaneous (s.c.) injection. All injection volume was used and was not re-introduced into the stock solution.
Inoculation of 4T1 cancer cells to mice—Cancer cell suspension at a concentration of 5.0×10^6 cells/ml was inoculated to the right flank of animals at a volume of 100 μl per mouse. Female Balb/c mice were inoculated with 100 μl of 5.0×10^6 4T1 cells/ml. Administration was performed as soon as possible following cell preparation and after manual shaking prior to withdrawal of cell suspension. Injections were performed using a 1 ml syringe and a 27 G needle where withdrawal is done without the needle.
UNO and N2 treatment—On the day of treatment, mice were anesthetized by an intraperitoneal (i.p.) injection of 100 mg/kg of ketamine and 10 mg/kg of xylazine hydrochloride solution. Tumor-bearing mice were treated with either N2 or UNO at 50,000 ppm or 100,000 ppm. UNO at 50,000 ppm was administered intratumorally by a 23 G needle for 10 minutes, at 0.2 LPM and 2 bar exit pressure. UNO at 100,000 ppm was administered intratumorally by a 23 G needle for 2 minutes, at 0.2 LPM and 2 bar exit pressure. After treatment, all mice were warmed and closely monitored until complete recovery was observed.
Injection of anti-CTLA-4—Anti-CTLA-4 was administered up to 5 times intraperitoneally (i.p.) at a dose of 5 mg/kg, i.p., using a 1 ml syringe with a 27 G needle. The injection was administered to approximately the same location each time.
UNO/Anti-CTLA-4 Repeated dose study—Balb/c mice (60) were inoculated with mouse breast cancer carcinoma (4T1) cells injected subcutaneously (s.c.) to the right flank. […]
Primary tumor volume progression was monitored twice a week by measuring the tumor using a digital caliper calculated as: […]
Mice survival was evaluated. Mice that reached a tumor volume of ≥1500 mm^3 and/or a score of 12 were humanely euthanized, and the time of death was recorded. Metastases development was evaluated postmortem.

CT26 tumor-bearing mice = assay: CT26 tumor model, UNO + anti-mPD-1 + CpG-B; assay type: in vivo, mouse
Method: Preparation of cancer cells for injection—Mouse colon carcinoma CT26.WT cells (ATCC, Cat no. CRL-2638) suspended in Hanks' Balanced Salt Solution (HBSS) (Biological Industries, Israel), at a concentration of 5.0×10^6 cells/ml, were freshly prepared on the day of cancer model induction. Cells were grown to 70% confluency and were harvested using trypsin (Biological Industries, Israel), and counted using a cell counter device. The cells were then centrifuged at 1,200 rpm (241×g) for 8 minutes, and the pellet was re-suspended in ice cold HBSS at 5.0×10^6 in 1 ml (5.0×10^5 cells in 100 μl solution). Cell viability was >90% as determined by trypan blue staining prior to inoculation to mice. At the point of inoculation, cells were at passage 8 at most.
Inoculation of CT26 cancer cells to mice—100 μl/mouse of the_CT26 cancer cells suspension (concentration of 5.0×10^6 cells/ml) were inoculated subcutaneously (s.c.) to the right flank of male BALB/c mice, which were 10 weeks of age (Envigo, the Netherlands). Five days later, CT26 cells at the same dose were inoculated s.c. to the left flank of each mouse. Ten days post primary tumor inoculation tumor-bearing mice were divided into the following groups (day 0) as depicted in Table 2 below and treated according to the timeline shown in FIG. 20:
Mice were followed up for totally 52 days. Tumor take was monitored by palpation of the flank and tumor growth was monitored by measurement of the tumor dimensions using a digital caliper. Mice were sacrificed and excluded from the study if their total tumor volume was >1500 mm^3 or their distress scoring >12 as was accepted according to the IACUC IL-2112-105-5.
UNO treatment—On the day of treatment, mice were anesthetized by an intraperitoneal (i.p.) injection of 100 mg/kg ketamine and 10 mg/kg of xylazine hydrochloride solution. Tumor-bearing mice were treated with 50,000 ppm of UNO delivered into the tumor by a 23 G needle over 5 minutes, at 0.2 LPM. After treatment, all mice were warmed and closely monitored until complete recovery was observed. […]

## [N]=O [UNO, nitric oxide]
4T1 tumor-bearing mice; FIG. 14C, Cox model
  Survival hazard ratio vs anti-mCTLA-4: 0.16
  Survival hazard ratio vs untreated: 0.31
4T1 tumor-bearing mice; UNO twice (FIG. 14C)
  Mice survival vs anti-mCTLA-4 monotherapy: prolonged survival; also recorded: significantly prolongs mice survival
4T1 tumor-bearing mice; only UNO, 100,000 ppm 2 min twice, day 13 after first UNO treatment, P=0.1158
  Tumors smaller compared to only anti-mCTLA-4: 12.9%
CT26 tumor-bearing mice; 42 days after treatments (FIG. 16)
  Percentage of mice with primary tumor complete regression: 10%
CT26 tumor-bearing mice; 42 days following treatments (FIG. 17)
  Distant tumor rejection, percentage of mice: 11%
CT26 tumor-bearing mice; 52 days following primary tumor inoculation
  Percentage of group surviving: 10%
